{
  "source": "patent US20250339470A1",
  "about": "“METHODS AND COMPOSITIONS FOR MATURING CARDIOMYOCYTES” (President and Fellows of Harvard College, priority 2024, published 2025)",
  "key": {"[1]": {"tested_on": "hiPSC-CMs", "assay": "qPCR mRNA expression of hiPSC-CMs cultured 7 days on SAP-coated plates", "assay_type": "cell-based, human", "settings": "7 days on 0.25% SAP coating; control Geltrex", "description": "At day 14 of cardiomyocyte differentiation, completion of the protocol was confirmed. Fully beating cardiomyocyte embryoid bodies were dissociated using the cardiomyocyte dissociation kit (STEMdiff Cardiomyocyte Dissociation Kit, […] Technologies, Canada) and reseeded (1.2 million cells/well) onto 6-well plates, which were prepared as follows. Each 6-well plate had 3 wells coated with Geltrex (control) and 3 wells coated with one of four self-assembling peptides (SAPs) at 0.25% concentration such that the differentiated cardiomyocytes would be cultured with the SAP. Specifically, the following SAPs were used in this study: RADA16, IEIK13, KLD12, and QLEL12. The cells were maintained for further in vitro analysis. Total RNA was extracted 7 days after initial exposure to each SAP to analyze messenger RNA (mRNA) expression of cardiomyocyte genes characteristics of an adult-like state. The inventors used Tryzol (TRIzol Reagent, Invitrogen, USA) to extract total RNA and a purification kit (E.Z.N.A. Total RNA kit I, Omega Bio-tec, Inc., Georgia, USA) according to the manufacturer's instructions. After quantification, RNA was reverse transcribed to cDNA using the High-Capacity cDNA Reverse Transcription Kit (Applied Biosystems) according to the manufacturer's instructions. Quantitative Polymerase Chain Reaction (qPCR) was performed in triplicate for each sample using the iTaq Universal SYBR Green Supermix (Bio-Rad) and the primer pairs (table S3) with a Bio-Rad CFX384 Real-Time thermal cycler. Double delta analyses were performed to compute the relative mRNA expression of each target gene using glyceraldehyde-3-phosphate dehydrogenase (GAPDH) as a housekeeping control gene."}, "[2]": {"tested_on": "hiPSC-CMs transplanted into rat hearts", "assay": "Electrophysiological recording with flexible mesh nanoelectronics (Langendorff)", "assay_type": "in vivo", "settings": "3 months after transplantation into the athymic rat heart", "description": "The inventors used RNU nude rats (8-10 weeks old, male, 250-350 g). Rats received cyclosporine injections (15 mg/kg) as an immunosuppressant a day before the injection and every day after surgery. […] After at least five days of observation in healthy conditions, the rats were applied to the electrophysiological study. […] As a pre-surgical analgesic, buprenorphine (0.1 mg/kg) was administered to the rats before anesthesia. […] The distal ascending aorta was ligated with a 4-0 silk suture, followed by infusion of heparin to coronary arteries, with the right atrium cut open to infuse efficiently with decreased right atrium pressure. […] The temperature of the circulated solution, the chamber of the Langendorff, and the heart rate were monitored with a data acquisition system (Bridge Amp (PowerLab 8/30, ADInstruments, USA), Bio Amp (Product code: FE231, ADInstruments, USA), Spring Clip Electrodes (Product code: MLA1214, AD ADInstruments, USA), and LabChart software v8.1.20) until the heart beating became stable. […] The inventors analyzed the electrophysiological data with a customized Python script. […] The inventors then detected electrical spikes using “find_peaks” from Scipy. The inventors manually curated the detected spikes into host sinus rhythm, automaticity/arrhythmia rhythm, and noises. […] The spikes were recorded at both the injection and reference sites. • 2. […]"}, "[3]": {"tested_on": "hiPSC-CMs injected into the rat left ventricle wall", "assay": "Sarcomere organization (SOTA), orientation and length of injected hiPSC-CMs", "assay_type": "in vivo", "settings": "7 days post-injection", "description": "The sections were stained with anti-cardiac troponin T antibody (Alexa Fluor 647 Mouse Anti-Cardiac Troponin T (cat #565744): cTnT, BD Pharmagen. 1:200), anti-human troponin I antibody (Recombinant Anti-Cardiac Troponin I antibody [EP1106Y] (ab52862): hTnI, Abcam 1:250), and DAPI as performed in the immunofluorescent staining. […] In this study, the inventors applied SarcOmere Texture Analysis (SOTA) to quantify sarcomere organization (17). SOTA was conducted by independent investigators who had no prior knowledge of the sample information. This methodological approach minimized potential biases and enhanced the reliability of the results.\nhiPSC-CMs were stained with hTnI to identify myofilaments. […]\nSarcomere length was measured as the distance between hTnI-stained Z-lines from cardiomyocytes with visible sarcomere structures. An average of 10 sarcomeres from each sample was calculated on an interpolated YZ projection to account for spatial distribution across different regions of the image (45). […]\nThe inventors performed the automated analysis of sarcomere organization using SOTA, which was previously validated in endogenous, direct reprogrammed, and induced pluripotent-derived cardiomyocytes (17). […] The inventors also calculated the primary sarcomere orientation using the SOTA angle of peak prominence. […]"}},
  "note": "Entries after “also recorded” stand apart in the source; their conditions may differ.",
  "data": [
    {"substance": "KLD12", "values": [
      {"measurement": "expression of KCNJ2", "setting": "[1]", "value": "significantly higher"}
    ]},
    {"substance": "RADA16", "values": [
      {"measurement": "ventricular bigeminy", "setting": "[2]", "value": "not observed"},
      {"measurement": "sarcomere length", "setting": "[3]", "value": "not associated with a difference"},
      {"measurement": "expression of GJA1", "setting": "[1]", "value": "significantly higher in the RADA16 group compared to all other SAP groups and the control group; also recorded: highest expression"},
      {"measurement": "expression of KCNJ2", "setting": "[1]", "value": "significantly higher; also recorded: highest expression"},
      {"measurement": "expression of NANOG", "setting": "[1]", "value": "significantly lower in the RADA16 and control groups than in the IEIK13 group; also recorded: no significant difference between the control and RADA16 group; also recorded: significantly declined"},
      {"measurement": "ratio of MYH7 mRNA expression to MYH6 expression", "setting": "[1]", "value": "significantly higher in the RADA16 group than in the IEIK13 and QLEL12 groups; also recorded: not significantly different between the RADA16 and control groups nor the RADA16 and KLD12 groups; also recorded: most pronounced increase"},
      {"measurement": "ratio of TNNI3 to TNNI1 expression", "setting": "[1]", "value": "higher TNNI3/TNNI1 expression ratio"}
    ]},
    {"substance": "IEIK13", "values": [
      {"measurement": "expression of KCNJ2", "setting": "[1]", "value": "significantly higher"}
    ]}
  ]
}
